Results from patent US10159717B2, “Methods of treating cancer of the central nervous system” (Yeda Research and Development Co. Ltd., priority 2008, dated 2018).

How the values were obtained:
[1] = Stability of oxaloacetate solutions; format: physicochemical; settings: cell culture medium
Description: To test the effect of oxaloacetate (OA) on glioma cells in vitro, C6 glioma cells were incubated with 1 mM oxaloacetate. Since oxaloacetate solutions are unstable, the cell culture medium was changed every day to allow the cells to be daily exposed to a fresh oxaloacetate solution.

C6 glioma = C6 glioma implanted in rat striatum, tumor growth followed by MRI; format: in vivo; settings: 0.2M oxaloacetate in drinking water from day 7, MRI 10 days later, in average
Description: Male SPD&OLD rats weighing 260-280 g were used and placed in individual cages. All experiments were conducted according to the guidelines of the institutional animal care and use committee of the Weizmann Institute of Science, Rehovot, Israel.
Rat C6 glioma cells were grown in DMEM medium supplemented with 10% FCS. 10^7 cells were plated on 100×20 mm dishes and grown to 80% confluence for two days, passaged at a dilution of 1:10 after 1-2 min exposure to 0.25% trypsin and plated on 7 plates 60×15 mm. The cells were grown to 80% confluence for two additional days. The cells were then trypsynized as above, washed once with sterile PBS and centrifuged for 15 min at 1200 rpm. Prior to centrifugation, the cells were counted in a hemocytometer. Following centrifugation, the medium was removed and the cells were diluted in sterile PBS to a final concentration […] was injected immediately intracranially. For that purpose, the rats were anesthetized with 1.5% Halothane and placed in a stereotactic apparatus. […]
Experiments on live animals were conducted on a Bio spec Avance™ system (Bruker Biospin, Ettlingen, Germany) with a 4.7 T 30-cm horizontal bore magnet. […] The volume of the tumor was assessed using the Surdriver program.
After establishing that oxaloacetate has no effect on glioma growth when grown under in vitro conditions, the effect of same in vivo was determined. […]

stability of solutions [1]: unstable
SMILES: O=C(O)CC(=O)C(=O)O [oxaloacetate]
Tumor spread, less than that of untreated animals that received drinking water only (C6 glioma): at least 10 folds
